Experimental data published in publication PMC7297381, “Potent, specific MEPicides for treatment of zoonotic staphylococci” (PLoS Pathogens, 2020).
≈ marks a conversion by molar mass, not a printed value. Read-outs that look alike come from different tables or passages of the source.

Columns and labels:
S. pseudintermedius [1] = experiment: Growth inhibition assay of Staphylococcus species (OD600, 20 h); details: read-out: S. pseudintermedius IC50
Description: (§2) Overnight cultures were diluted 1:200 in LB media and grown at 37°C until the mid-logarithmic phase (OD600 = 0.5–0.8). Cultures were diluted in a 96-well plate to 1 x 10^5 in 150 μL LB media and treated with inhibitors at concentrations ranging from 2 nM to 100 μM. Bacteria were grown at 37°C for 20 h with cyclic shaking at 700 rpm in a FLUOstar Omega microplate reader (BMG Labtech). Growth was assessed over 20 h by measuring the OD600 at 20 min increments. The half-maximal inhibitory concentration (IC50) values were determined during logarithmic growth using GraphPad Prism software. All experiments were performed at least in triplicate and data reported represent the mean ± SEM.

S. schleiferi [2] = experiment: MIC by microtiter broth dilution, wild-type and FSM-resistant strains
Description: (§3) Minimum Inhibitory Concentration (MIC) assays were conducted by microtiter broth dilution in clear 96-well plates[78]. MEPicides were serially diluted in duplicate at concentrations ranging from 1.5 mM– 19.5 nM in 75 μL of LB broth. Bacteria cultured without drug were used as a positive control for growth. The plates were inoculated with 75 μL bacteria diluted to 1 x 10^5 CFU/mL in LB. Plates were incubated for 18–20 h while shaking at 200 RPM at 37°C. The plates were then visually inspected, and the MIC value was defined as the lowest concentration of MEPicide that prevented visual growth.

Klebsiella pneumoniae = experiment: Growth inhibition assay for Gram-negative bacteria; type: cell-based; details: for IC50: Klebsiella pneumoniae, ATCC43816, ATCC 43816, mean ± SD
S. schleiferi [3] = experiment: Growth inhibition assay of Staphylococcus species (OD600, 20 h); details: read-out: S. schleiferi IC50
Description: as §2

S. schleiferi DXR enzyme = S. schleiferi DXR enzyme (Staphylococcus schleiferi, UniProt A0ABF7SXB4); experiment: S. schleiferi DXR enzyme activity and inhibition (NADPH oxidation at 340 nm); type: biochemical
Description: (§1) . The sequence was confirmed by Sanger sequencing and the plasmid was transformed into E. coli BL21(DE3) pLysS (Life Technologies). Gene expression was induced for 2 h with 1 mM isopropyl-β-D-thiogalactoside (IPTG) and cells were harvested by centrifugation at 4274 x g for 10 min at 4°C. The cell pellet was lysed by sonication in lysis buffer containing 25 mM Tris HCl (pH 7.5), 100 mM NaCl, 20 mM imidazole, 10% glycerol, 1 mM MgCl2, 1 mM dithiothreitol (DTT), 1 mg/mL lysozyme, 75 U benzonase and 1 Complete Mini EDTA-free protease inhibitor tablet (Roche Applied Science). The hexahistidine-tagged DXR protein was affinity purified from soluble lysate via nickel agarose beads (Gold Biotechnology). Bound protein was eluted in 300 mM imidazole, 25 mM Tris HCl (pH 7.5), 1 mM MgCl2 and 100 mM NaCl. Purified protein was dialyzed in buffer containing 10% glycerol without imidazole prior to analysis. The enzyme was frozen in liquid nitrogen and stored permanently at -80°C.
Oxidation of NADPH to NADP^+ as a result of substrate turnover was monitored at 340 nm in a POLARstar Omega microplate reader (BMG Labtech)[73]. […] Reactions were initiated by the addition of DOXP after 15 min incubation of the reaction mixture without DOXP at 37°C. Absorption at 340 nm was measured continuously for up to 45 min. For Km [DOXP] determination, DOXP concentrations between 0 and 2 mM were tested at 0.5 mM NADPH. The linear range of enzyme activity was determined by varying the DXR concentration at 1 mM DOXP and 1 mM NADPH. IC50 assays were performed using the standard reaction conditions with the respective amount of DXR inhibitor added to obtain the given final concentrations. Data points from at least three independent replicates were analyzed by nonlinear regression using GraphPad Prism software. Slopes of changing absorbance values were converted to (μM DOXP)(mg enzyme)^-1 s ^-1 using a NADPH standard curve (data not shown). For the determination of the inhibitory constant Ki [FSM] of DXR, enzyme activity over a range of DOXP substrate concentrations between 0 and 2 mM was measured for FSM between 0 mM to 4 mM. Data points from at least three independent replicates were analyzed as described above.

Serratia marcescens = experiment: Growth inhibition assay for Gram-negative bacteria; type: cell-based; details: strain 137.01, mean ± SD
Salmonella typhimurium = experiment: Growth inhibition assay for Gram-negative bacteria; type: cell-based; details: Salmonella enterica, strain 04-018-0254, mean ± SD
Shigella sonnei = experiment: microbe, parasite or virus in culture; type: cell-based; details: mean ± SD
[4] = system: Burkholderia thailandensis; experiment: microbe, parasite or virus in culture; type: cell-based; details: read-out: Burkholderia thailandensis IC50
HepG2 cells = system: HepG2 cells; parameters: method as in PMID 28827774, PMID 30192536; details: previous work ref [42], [53]; read-out: IC50 against HepG2 cells; cited from earlier work
S. aureus = experiment: Growth inhibition assay of Staphylococcus species (OD600, 20 h); details: for IC50: Staphylococcus aureus, read-out: S. aureus IC50
Description: as §2

Escherichia coli = experiment: microbe, parasite or virus in culture; type: cell-based; details: for IC50: Escherichia coli, BW25113, mean ± SD
S. pseudintermedius [5] = experiment: Minimum bactericidal (MBC) assay, CFU after 24 h; details: 1 x and 10 x IC50, 24 h, CFU/mL
Description: (§4) Overnight cultures were diluted 1:200 in LB media and grown at 37°C until reaching mid-logarithmic phase of growth. […] Cultures were serially diluted in 1 X Dulbecco’s Phosphate Buffered Saline (PBS; Gibco) and plated on LB agar. Colonies were enumerated after overnight growth at 37°C. Values reflect the mean and standard deviations of at least three independent experiments.
(§5) Growth in CFU/mL of S. schleiferi and S. pseudintermedius after 24 h treatment is plotted against the respective treatment. Cultures were treated at 1 x IC50 concentration and/or 10x IC50 concentration of the inhibitors. Shown are the mean values + SD from at least three independent experiments.

S. schleiferi [6] = experiment: Minimum bactericidal (MBC) assay, CFU after 24 h; details: 1 x and 10 x IC50, 24 h, CFU/mL
Description: as §4, §5

MEP pathway [7] = experiment: Targeted LC-MS/MS profiling of MEP pathway intermediates; details: FSM at 10x IC50, 2 h, vs untreated
Description: (§6) MEP pathway metabolites were compared between untreated (UNT) S. schleiferi (A) and S. pseudintermedius (B) and bacteria treated with FSM at 10x the respective IC50 values. After 2 h treatment, bacterial cells were harvested and the cell pellets analyzed by LC-MS/MS. […] P-values were determined using a Student’s t-test.
(§7) Overnight cultures of Staphylococcus spp. were diluted 1:200 in LB media and grown at 37°C until reaching mid-logarithmic phase. Cultures were then treated for 2 h with FSM at 10x their IC50 while shaking at 37°C. For normalization, the OD600 was determined after 2 h of treatment with the DXR inhibitors. Cells were pelleted by centrifugation for 5 min at 3000 x g at 4°C. The supernatants were removed and cells were washed twice with 1 x PBS (Gibco). The supernatants were removed and the pellets stored at -80°C until analysis. MEP intermediates were extracted from the samples using glass beads (212–300 u) and 600 μL chilled H2O: chloroform: methanol (3:5:12 v/v) spiked with PIPES (piperazine-N,N′-bis(2-ethanesulfonic acid) as internal standard. The cells were disrupted with the TissueLyser II instrument (Qiagen) using a microcentrifuge tube adaptor set pre-chilled for 2 min at 20 Hz. The samples were then centrifuged at 16,000 x g at 4°C for 10 min, the supernatants collected, and pellet extraction repeated once more. The supernatants were pooled and 300 μL chloroform and 450 μL of chilled water were added to the supernatants. The tubes were vortexed and centrifuged. The upper layer was transferred to a 2 mL tube PVDF filter (ThermoFisher, F2520-5) and centrifuged for 5 min at 4,000 x g at 4°C. The samples were transferred to new tubes and dried using a speed-vac. […]
(§8) For LC separation, Luna-NH2 column (3 μm, 150 x 2 mm, Phenomenex) was used flowing at 0.4 mL/min. […] The metabolites were detected using MRM transitions that were previously optimized using standards. […] For quantification, an external standard curve was prepared using a series of standard samples containing different concentrations of metabolites and a fixed concentration of the internal standard. […]

S. pseudintermedius [8] = experiment: MIC by microtiter broth dilution, wild-type and FSM-resistant strains
Description: as §3

MEP pathway [9] = experiment: Targeted LC-MS/MS profiling of MEP pathway intermediates; details: FSM at 10x IC50, 2 h, vs untreated; remark: listed apart in the source
Description: as §6, §7, §8

[10] = substrate: CC(=O)[C@@H](O)[C@H](O)COP(=O)(O)O; experiment: S. schleiferi DXR enzyme activity and inhibition (NADPH oxidation at 340 nm); type: biochemical; details: other: 0.5 mM NADPH; pH 7.5; 37.0 °C
Description: as §1, with “Bound protein was eluted in 300 mM imidazole, 25 mM Tris HCl (pH 7.5), 1 mM MgCl2 and 100 mM NaCl. Purified protein was dialyzed in buffer containing 10% glycerol without imidazole prior to analysis. The enzyme was frozen in liquid nitrogen and stored permanently at -80°C.” left out
Oxidation of NADPH to NADP^+ as a result of substrate turnover was monitored at 340 nm in a POLARstar Omega microplate reader (BMG Labtech)[73]. […] Absorption at 340 nm was measured continuously for up to 45 min. […] The linear range of enzyme activity was determined by varying the DXR concentration at 1 mM DOXP and 1 mM NADPH. […] Data points from at least three independent replicates were analyzed by nonlinear regression using GraphPad Prism software. Slopes of changing absorbance values were converted to (μM DOXP)(mg enzyme)^-1 s ^-1 using a NADPH standard curve (data not shown). […] Data points from at least three independent replicates were analyzed as described above.

[11] = purified recombinant enzyme, mean ± SEM, read-out: S. schleiferi DXR enzyme IC50

CC(=O)N(O)C/C=C/P(=O)(OCOC(=O)C(C)(C)C)OCOC(=O)C(C)(C)C [Compound 2]
IC50 (S. pseudintermedius [1]): 0.26 ± 0.03 µM | sensitivity of FSM^R glpT mutant S. schleiferi strains (MIC fold change vs WT) (S. schleiferi [2]; strains 3408, 4494, 7376, 8400): remain sensitive | inhibition of growth of Klebsiella pneumoniae (Klebsiella pneumoniae): does not inhibit growth | IC50 (Klebsiella pneumoniae): > 100 µM | IC50 (S. schleiferi [3]): 0.1 ± 0.01 µM | inhibition of purified recombinant S. schleiferi DXR in vitro (S. schleiferi DXR enzyme; prodrug, uncleaved): poorly inhibit | IC50 (S. schleiferi DXR enzyme; [11]): > 100 µM | IC50 (Serratia marcescens): > 100 µM | IC50 (Salmonella typhimurium): > 100 µM | IC50 (Shigella sonnei): > 100 µM | IC50 [4]: > 100 µM | IC50 (HepG2 cells): > 100 µM | IC50 (S. aureus): > 100 µM | inhibition of growth of E. coli (Escherichia coli): does not inhibit growth | IC50 (Escherichia coli): > 1000 µM

CC(=O)N(O)CCCP(=O)(O)O [FR-900098]
mechanism-of-action on viable cells (S. pseudintermedius [5]): bacteriostatic | IC50 (S. pseudintermedius [1]): 34.1 ± 6.54 µM | mechanism-of-action on viable cells (S. schleiferi [6]): bacteriostatic | IC50 (S. schleiferi [3]): 41.1 ± 6.65 µM | IC50 (S. schleiferi DXR enzyme): 1 ± 0.18 µM | inhibition of S. aureus growth (S. aureus): neither FSM nor FR-900098 inhibit S. aureus growth | IC50 (S. aureus): > 100 µM

O=CN(O)CCCP(=O)(O)O [FSM, fosmidomycin]
mechanism-of-action on viable cells (S. pseudintermedius [5]): bacteriostatic | increase of intracellular DOXP level (MEP pathway [7]): 23.8 fold | reduction of intracellular CDP-ME level (MEP pathway [7]): 5.5 fold | reduction of intracellular MEcPP level (MEP pathway [7]): 4.5 fold | IC50 (S. pseudintermedius [1]): 0.31 ± 0.04 µM | MIC (S. schleiferi [2]; read-out: FSM MIC, Parental S. schleiferi): 19.8 µM (≈ 3.63 µg/mL) | MIC (S. schleiferi [2]; read-out: FSM MIC, strain SSCH1903, GlpT G99X): 719 µM (≈ 132 µg/mL) | MIC (S. schleiferi [2]; read-out: FSM MIC, strain SSCH3408, GlpT A267E): 500 µM (≈ 91.6 µg/mL) | MIC (S. schleiferi [2]; read-out: FSM MIC, strain SSCH3612, GlpT G99V): 688 µM (≈ 126 µg/mL) | MIC (S. schleiferi [2]; read-out: FSM MIC, strain SSCH3624 (second line), GlpT A309S): 562 µM (≈ 103 µg/mL) | MIC (S. schleiferi [2]; read-out: FSM MIC, strain SSCH3624, GlpT G99V): 688 µM (≈ 126 µg/mL) | MIC (S. schleiferi [2]; read-out: FSM MIC, strain SSCH3717, no GlpT change): > 1500 µM | MIC (S. schleiferi [2]; read-out: FSM MIC, strain SSCH4455, GlpT G298X): > 1500 µM | MIC (S. schleiferi [2]; read-out: FSM MIC, strain SSCH4494, GlpT G99X): 750 µM (≈ 137 µg/mL) | MIC (S. schleiferi [2]; read-out: FSM MIC, strain SSCH7376, GlpT W148C): 438 µM (≈ 80.1 µg/mL) | MIC (S. schleiferi [2]; read-out: FSM MIC, strain SSCH8400, GlpT W161L): 469 µM (≈ 85.8 µg/mL) | MIC (S. schleiferi [2]; read-out: FSM MIC, strain SSCH8586, GlpT G99E): > 1500 µM | MIC (S. schleiferi [2]; read-out: FSM MIC, strain SSCH8774, GlpT Q379P): > 1500 µM | IC50 (Klebsiella pneumoniae): 0.81 ± 0.56 µM | mechanism-of-action on viable cells (S. schleiferi [6]): bacteriostatic | IC50 (S. schleiferi [3]): 0.78 ± 0.13 µM | Ki (S. schleiferi DXR enzyme; competitive with respect to the DOXP substrate): 0.29 ± 0.022 µM | IC50 (S. schleiferi DXR enzyme; [11]): 0.67 ± 0.06 µM | mode of DXR inhibition (S. schleiferi DXR enzyme; with respect to the DOXP substrate): competitive | IC50 (Serratia marcescens): 0.39 ± 0.02 µM | MIC (S. pseudintermedius [8]; read-out: FSM MIC, Parental S. pseudintermedius): 25.9 µM (≈ 4.74 µg/mL) | MIC (S. pseudintermedius [8]; read-out: FSM MIC, strain SPSE0643, GlpT W301X): 1120 µM (≈ 206 µg/mL) | MIC (S. pseudintermedius [8]; read-out: FSM MIC, strain SPSE1933, GlpT G99E): 875 µM (≈ 160 µg/mL) | MIC (S. pseudintermedius [8]; read-out: FSM MIC, strain SPSE2052, GlpT D88Y): 1120 µM (≈ 206 µg/mL) | MIC (S. pseudintermedius [8]; read-out: FSM MIC, strain SPSE2227, GlpT G135D): 1120 µM (≈ 206 µg/mL) | MIC (S. pseudintermedius [8]; read-out: FSM MIC, strain SPSE2648, GlpT G99E): 1000 µM (≈ 183 µg/mL) | MIC (S. pseudintermedius [8]; read-out: FSM MIC, strain SPSE5869, GlpT G135V): 938 µM (≈ 172 µg/mL) | MIC (S. pseudintermedius [8]; read-out: FSM MIC, strain SPSE6794, GlpT G99E): 1250 µM (≈ 229 µg/mL) | MIC (S. pseudintermedius [8]; read-out: FSM MIC, strain SPSE6909, GlpT G404D): 688 µM (≈ 126 µg/mL) | MIC (S. pseudintermedius [8]; read-out: FSM MIC, strain SPSE7104, GlpT G99E): 1250 µM (≈ 229 µg/mL) | MIC (S. pseudintermedius [8]; read-out: FSM MIC, strain SPSE7724, GlpT G400C): 1120 µM (≈ 206 µg/mL) | MIC (S. pseudintermedius [8]; read-out: FSM MIC, strain SPSE8628, no GlpT change): 1060 µM (≈ 195 µg/mL) | MIC (S. pseudintermedius [8]; read-out: FSM MIC, strain SPSE9765, no GlpT change): 1250 µM (≈ 229 µg/mL) | IC50 (Salmonella typhimurium): 0.23 ± 0.03 µM | IC50 (Shigella sonnei): 1.16 ± 0.69 µM | IC50 [4]: > 100 µM | increase of intracellular DOXP level (MEP pathway [9]): 34.8 fold | reduction of intracellular CDP-ME level (MEP pathway [9]): 2.6 fold | reduction of intracellular MEcPP level (MEP pathway [9]): 2.4 fold | inhibition of S. aureus growth (S. aureus): neither FSM nor FR-900098 inhibit S. aureus growth | IC50 (S. aureus): > 100 µM | IC50 (Escherichia coli): 0.29 ± 0.08 µM

B1: S. schleiferi DXR enzyme (Staphylococcus schleiferi) (protein)
chain: MKNIAILGASGSIGQQAIDVIARHPESFNLISFTVGKNIEFAIEVIEKFKPEIVSVQDEADVERLKPYHSNIVSGRQGLIDVSTYEKNDLVLNALLGSVGLEPTMKAIEAGKNIALANKETLVVAGKLVMTHAKRYGVDILPVDSEHAAIFQCLNGEDMHKIKNVTITASGGSFRELTREQLEHVTVGDALNHPNWSMGNKITIDSATMMNKGFEVIEAKWLFDLKIDQIKTILHKESIIHSLVEFVDTSVMAQLGTPDMRMPIQYAFTYPERIEHRAPSLDLVQVAQLHFQEMDLDRYRCLKFAYDALRIGGSMPVVLNAVNEVAVAKFLNHEITFLEIEHMIEREMSAHEVIPDPSLEEILEIDHYYKTKSYEV
Km [10]: 520 ± 80 µM
